The target of the test is Arabidopsis thaliana SHMT. The experiment in a line: SHMT activity assay (ED50 SHMT), coupled with N5,N10-CH2-THF dehydrogenase, NADH at 340 nm. In kind it is biochemical. An outline of the steps:
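His-tagged SHMT purified on Ni-NTA. NADH formation followed at 340 nm for 30 min; ED50 from inhibition of initial velocity.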

The mark [1] stands for this setting: inhibition of initial velocity of Arabidopsis thaliana SHMT.
Setting [2] is: Table 2, values given as upper bounds.
The mark [3] stands for this setting: Arabidopsis thaliana SHMT enzyme assay, values given as upper bounds.
The mark [4] stands for this setting: Table 2, Arabidopsis thaliana SHMT enzyme assay, values given as upper bounds.

Structures are written as SMILES.

For the compound `Cc1n[nH]c2c1C(c1ccc(-c3ccc(C(F)(F)F)cc3)s1)(C1CCC1)C(C#N)=C(N)O2` (stereo not shown) [Compound 4.26], under setting [1], the EC50 was less than 10 nM.
`CCC1(c2cc(Br)c(C)c(Br)c2)C(C#N)=C(N)Oc2[nH]nc(C)c21` (stereo not shown) [Compound 2.473]: the EC50 under setting [2] is less than 10 nM.
The same measure, in the same setting: to `Cc1n[nH]c2c1C(c1cc(C#N)cc(-c3cc(F)c(O)c(F)c3)c1)(C1CCC1)C(C#N)=C(N)O2` (stereo not shown) [Compound 2.484] belongs less than 10 nM; to `COCOc1cc(C(F)(F)F)cc(C2(C3CCC3)C(C#N)=C(N)Oc3[nH]nc(C)c32)c1` (stereo not shown) [Compound 2.476], less than 10 nM.
For `Cc1n[nH]c2c1C(c1cc(CCCc3nnn[nH]3)cc(-c3nnn[nH]3)c1)(C(C)C)C(C#N)=C(N)O2` (stereo not shown) [Compound 2.715], under setting [3], the EC50 is less than 1000 nM.
For `Cc1cccc(Oc2cc(Cl)cc(C3(C4CCC4)C(C#N)=C(N)Oc4[nH]nc(C)c43)c2)c1` (stereo not shown) [Compound 2.239], the EC50 under setting [4] is less than 100 nM.
The compound `COC(=O)c1csc(-c2cc(C#N)cc(C3(C4CCC4)C(C#N)=C(N)Oc4[nH]nc(C)c43)c2)c1` (stereo not shown) [Compound 2.682] came in with an EC50 under setting [3] of less than 10 nM.
Under setting [2], `CCCc1n[nH]c2c1C(CC)(c1cccc(Cl)c1)C(C#N)=C(N)O2` (stereo not shown) [Compound 2.85.] gave a concentration for a half-maximal effect (EC50) of less than 10000 nM.
For `CCCC1(c2cc(Cl)cc(Cl)c2)C(C#N)=C(N)Oc2[nH]nc(C)c21` (stereo not shown) [Compound 2.89.], under setting [2], the concentration giving a half-maximal response (EC50) was less than 1000 nM.
The compound `Cc1n[nH]c2c1C(c1cc(Cl)cc(Oc3cccc(C(F)(F)F)c3)c1)(C1CCC1)C(C#N)=C(N)O2` (stereo not shown) [Compound 2.234] returned a concentration for a half-maximal effect (EC50) under setting [4] of less than 10 nM.
For `Cc1n[nH]c2c1C(c1cc(Cl)cc(Cl)c1)(C1CCCCC1)C(C#N)=C(N)O2` (stereo not shown) [Compound 2.206.], under setting [2], the EC50 was less than 10000 nM.
Still for that read-out and setting: the value for `CCC1(c2cc(Br)cc(C#N)c2)C(C#N)=C(N)Oc2[nH]nc(C(C)C)c21` (stereo not shown) [Compound 2.583] was less than 10 nM.
On to `Cc1n[nH]c2c1C(c1cc(C#N)cc(-c3ccsc3)c1)(C1CCC1)C(C#N)=C(N)O2` (stereo not shown) [Compound 2.329], for which, under setting [4], the EC50 is less than 10 nM.
With `N#CC1=C(N)Oc2[nH]nc(C3CC3)c2C1(c1ccc(Cl)cc1)C1CC1` (stereo not shown) [Compound 2.129.], the EC50 under setting [2] is less than 10000 nM.
Regarding `COC(=O)c1ccc(-c2cc(C#N)cc(C3(C(C)C)C(C#N)=C(N)Oc4[nH]nc(C)c43)c2)o1` (stereo not shown) [Compound 2.706], under setting [3], the concentration for a half-maximal effect (EC50) is less than 10 nM.
The compound `Cc1n[nH]c2c1C(c1ccc(OC(F)(F)F)c(Cl)c1)(C1CCC1)C(C#N)=C(N)O2` (stereo not shown) [Compound 2.303] registered a 50% effective concentration (EC50) under setting [4] of less than 10 nM.
`CCCCCCOc1ccc(C2(CC)C(C#N)=C(N)Oc3[nH]nc(C)c32)cc1` (stereo not shown) [Compound 2.36.] showed an EC50 under setting [2] of less than 10000 nM.
Consider `COC(=O)c1ccc(-c2cc(C#N)cc(C3(C(C)C)C(C#N)=C(N)Oc4[nH]nc(C)c43)c2)s1` (stereo not shown) [Compound 2.705], for which the concentration for a half-maximal effect (EC50) under setting [3] is less than 10 nM.
`COc1ccc(C2(C(C)C)C(C#N)=C(N)Oc3[nH]nc(C4CC4)c32)cc1Cl` (stereo not shown) [Compound 2.148.] yielded a concentration for a half-maximal effect (EC50) under setting [2] of less than 1000 nM.
Under setting [4], `COc1ccc(C2(C3CCC3)C(C#N)=C(N)Oc3[nH]ncc32)cc1Cl` (stereo not shown) [Compound 2.253] displayed an EC50 of less than 10 nM.
Compound `CCC1(c2ccc(C(F)(F)F)cc2)C(C#N)=C(N)Oc2[nH]nc(C)c21` (stereo not shown) [Compound 2.30.] came in with an EC50 under setting [2] of less than 10000 nM.
Compound `CC(C)C1(c2cc(Br)cc(Br)c2)C(C#N)=C(N)Oc2[nH]ncc21` (stereo not shown) [Compound 2.287] displayed a half-maximal effective concentration (EC50) under setting [4] of less than 10 nM.
As for `Cc1n[nH]c2c1C(c1cc(F)c3c(c1)C=CC(C)(C)O3)(C1CCC1)C(C#N)=C(N)O2` (stereo not shown) [Compound 4.23], the concentration for a half-maximal effect (EC50) under setting [1] was less than 10 nM.
Under setting [2], `Cc1n[nH]c2c1C(c1ccc(OCCc3nnn[nH]3)c(Cl)c1)(C1CCC1)C(C#N)=C(N)O2` (stereo not shown) [Compound 2.646] had an EC50 of less than 10 nM.
Compound `CC(=O)N(C)c1cc(C#N)cc(C2(C(C)C)C(C#N)=C(N)Oc3[nH]nc(C)c32)c1` (stereo not shown) [Compound 2.553] returned a half-maximal effective concentration (EC50) under setting [2] of less than 10 nM.
The same measure, in the same setting: the value for `Cc1n[nH]c2c1C(c1cc(Cl)cc(Oc3cccc(F)c3)c1)(C1CC1)C(C#N)=C(N)O2` (stereo not shown) [Compound 2.190.] was less than 100 nM; that for `CCC1(c2ccc(OS(=O)(=O)CC)cc2)C(C#N)=C(N)Oc2[nH]nc(C)c21` (stereo not shown) [Compound 2.26.] was less than 10000 nM.
Consider `COc1c(Cl)cc(C2(C3CCC3)C(C#N)=C(N)Oc3[nH]nc(C)c32)cc1Cl` (stereo not shown) [Compound 2.292], for which, under setting [4], the EC50 is less than 10 nM.
On the same count and under the same terms, to `N#CC1=C(N)Oc2[nH]ncc2C1(c1cc(C#N)cc(C(=O)OCc2ccccc2)c1)C1CCC1` (stereo not shown) [Compound 2.369] belongs less than 10 nM.
Under setting [1], `Cc1n[nH]c2c1C(c1cc3ccccc3s1)(C1CCC1)C(C#N)=C(N)O2` (stereo not shown) [Compound 4.28] came in with an EC50 of less than 10 nM.
Consider `CC(C)CC1(c2cc(Cl)cc(Cl)c2)C(C#N)=C(N)Oc2[nH]ncc21` (stereo not shown) [Compound 2.205.], for which the 50% effective concentration (EC50) under setting [2] is less than 10000 nM.
In the case of `Cc1n[nH]c2c1C(c1cc(C#N)cc(-c3cc(C(=O)O)cs3)c1)(C1CCC1)C(C#N)=C(N)O2` (stereo not shown) [Compound 2.683], the concentration for a half-maximal effect (EC50) under setting [3] was less than 10 nM.
In turn, `CCC1(c2cc(F)cc(F)c2F)C(C#N)=C(N)Oc2[nH]nc(C)c21` (stereo not shown) [Compound 3.4] registered an EC50 under setting [1] of less than 10000 nM.
`Cc1n[nH]c2c1C(c1cc(C#N)cc(N(C)C(=O)c3cccc(C(=O)O)c3)c1)(C1CCC1)C(C#N)=C(N)O2` (stereo not shown) [Compound 2.633] had a concentration for a half-maximal effect (EC50) under setting [2] of less than 100 nM.
For `Cc1n[nH]c2c1C(c1cc(C#N)cc(-c3cc(C(=O)O)cc(C(=O)O)c3)c1)(C1CCC1)C(C#N)=C(N)O2` (stereo not shown) [Compound 2.564], under setting [2], the EC50 is less than 1000 nM.
With `Cc1n[nH]c2c1C(c1cc(-c3nnn[nH]3)cc(N(C)CCC#N)c1)(C1CCC1)C(C#N)=C(N)O2` (stereo not shown) [Compound 2.692], under setting [3], the EC50 was less than 1000 nM.
`Cc1n[nH]c2c1C(c1cccc(C(C)(F)F)c1)(C1CCC1)C(C#N)=C(N)O2` (stereo not shown) [Compound 2.305] displayed a 50% effective concentration (EC50) under setting [4] of less than 100 nM.
The compound `Cc1n[nH]c2c1C(c1ccc3c(c1)CCO3)(C1CCC1)C(C#N)=C(N)O2` (stereo not shown) [Compound 4.32] displayed a half-maximal effective concentration (EC50) under setting [1] of less than 10 nM.
On to `COc1ccc(C2(C3CC3)C(C#N)=C(N)Oc3[nH]nc(C)c32)cc1Cl` (stereo not shown) [Compound 2.149.], for which the EC50 under setting [2] is less than 100 nM.
Same read-out and setting: the value for `CCC1(c2ccc(C(F)(F)F)c(F)c2)C(C#N)=C(N)Oc2[nH]nc(C)c21` (stereo not shown) [Compound 2.29.] was less than 10000 nM; that for `CCC1(c2ccc(NC(=O)C(C)(C)C)cc2)C(C#N)=C(N)Oc2[nH]nc(C)c21` (stereo not shown) [Compound 2.39.] was less than 10000 nM.
Still for that read-out and setting: the value for `CCC1(c2ccc(F)c(C(F)(F)F)c2)C(C#N)=C(N)Oc2[nH]nc(C)c21` (stereo not shown) [Compound 2.65.] was less than 1000 nM.
Still for that read-out and setting: the value for `CCC1(c2cc(C#N)cc(C(F)(F)F)c2)C(C#N)=C(N)Oc2[nH]nc(OC)c21` (stereo not shown) [Compound 2.599] was less than 1000 nM; that for `Cc1n[nH]c2c1C(c1cc(Cl)cc(N3CCOCC3)c1)(C1CCC1)C(C#N)=C(N)O2` (stereo not shown) [Compound 2.488] was less than 10 nM.
Regarding `Cc1n[nH]c2c1C(c1cc(Cc3nnn[nH]3)cc(-c3nnn[nH]3)c1)(C(C)C)C(C#N)=C(N)O2` (stereo not shown) [Compound 2.735], the EC50 under setting [3] is less than 10000 nM.
With `CCC1(c2cccc(Cl)c2)C(C#N)=C(N)Oc2[nH]nc(C3CC3)c21` (stereo not shown) [Compound 2.117.], under setting [2], the EC50 was less than 10000 nM.
Regarding `Cc1n[nH]c2c1C(c1cc(C#N)cc(C#N)c1)(C1CC(F)(F)C1)C(C#N)=C(N)O2` (stereo not shown) [Compound 2.707], under setting [3], the EC50 was less than 1000 nM.
Compound `Cc1n[nH]c2c1C(c1ccc3ccccc3c1)(C1(F)CC1)C(C#N)=C(N)O2` (racemic) [Compound 4.59] returned an EC50 under setting [1] of less than 100 nM.
The compound `Cc1n[nH]c2c1C(c1cc(C#N)cc(N(C)C(=O)Cc3nnn[nH]3)c1)(C(C)C)C(C#N)=C(N)O2` (stereo not shown) [Compound 2.721] came in with a concentration for a half-maximal effect (EC50) under setting [3] of less than 100 nM.

The values above are taken from US9480259B2, “Pyrazolopyrans having herbicidal and pharmaceutical properties” (BASF SE, priority 2012, dated 2016).
